Experimental data: patent publication EP0657176B1, “Composition containing a water-insoluble or slightly water-soluble compound with enhanced water-solubility” (priority 1993, dated 1995)

What was measured:
[1] = Water-solubility of acetohexamide alone or combined with β-CyD-G2-COONa or β-CyD (Example 13); format: physicochemical; details: with β-CyD-G2-COONa or β-CyD 1:1 (molar ratio), as Example 12, powder 100 mg + water 1 ml; alone: 25 °C, 6 hours; ultraviolet spectrophotometer; read-out: solubilities of acetohexamide
Method: Separately, powder was obtained by the same operation except using β-CyD instead of the above β-CyD-G2-COONa. Water (1 ml) was added to each powder (100 mg) thus obtained to dissolve it. On the other hand, acetohexamide alone was added to water, and the mixture was vigorously shaken at 25 °C for 6 hours and filtered through a membrane filter of 0.22 µm. The acetohexamide in the above filtrate was determined with an ultraviolet spectrophotometer (Shimadzu Corp., UV-240).

[2] = Water-solubility of the antifungal agent alone or combined with β-CyD-G2-COONa or β-CyD (Example 4); format: physicochemical; details: triazolone antifungal agent in water; with β-CyD-G2-COONa or β-CyD 1:2 (molar ratio), lyophilized powder; as Example 1; read-out: solubilities of the antifungal agent
Method: (§1) The antineoplastic agent 6-O-(N-chloroacetylcarbamoyl)fumagillol (100 mg) was dissolved in ethanol (4 ml). […] The aqueous solution was added to the ethanol solution and mixed with it with stirring. The resulting solution was lyophilized in vacuo to give powder. Water (1 ml) was added to the powder (100 mg) to obtain a homogeneous aqueous solution, i.e., a composition of the present invention.
(§2) On the other hand, the antineoplastic agent alone was added to water, and the mixture was vigorously shaken at 25 °C for 4 hours and filtered through a membrane filter of 0.22 µm.
(§3) The antineoplastic agent in the above homogeneous aqueous solution and filtrate was determined by high performance liquid chromatography (HPLC). As a result, the solubilities in Table 1 were obtained.
Likewise, lyophilized powder was obtained from the antifungal agent and β-cyclodextrin (β-CyD)(the antifungal agent : β-CyD = 1:2 (molar ratio)). […]

[3] = Water-solubility of clofibrate alone or combined with β-CyD-G2-COONa or β-CyD (Example 5); format: physicochemical; details: in water; with β-CyD-G2-COONa or β-CyD 1:2 (molar ratio), lyophilized powder; as Example 1; read-out: solubilities of clofibrate
Method: as §1, §2, §3
Likewise, lyophilized powder was obtained from clofibrate and β-cyclodextrin (β-CyD) (clofibrate : β-CyD = 1:2 (molar ratio)). […]

[4] = Water-solubility of flufenamic acid alone or combined with β-CyD-G2-COONa or β-CyD (Example 7); format: physicochemical; details: flufenamic acid about 6 mg; as Example 6 (cyclodextrin 75 mg in water 5 ml, 25°C, 8 hours)
Method: (§4) Sodium6-O-cyclomaltoheptaosyl-(6→1)-O-α-D-glucosyl-(4→1)-O-α-D-glucuronate (β-CyD-G2-COONa)(75 mg) was dissolved in water (5 ml).

[5] = Water-solubility of griseofulvin alone or combined with β-CyD-G2-COONa or β-CyD (Example 12, milling, spectrophotometry); format: physicochemical; details: with β-CyD-G2-COONa or β-CyD 1:1 (molar ratio), shaken in tumbler pulverizer with a small amount of water, lyophilized, powder 100 mg + water 1 ml, alone: 25°C, 6 hours, read-out: solubilities of griseofulvin
Method: Water (1 ml) was added to each powder (100 mg) thus obtained to obtain an aqueous solution thereof. On the other hand, griseofulvin alone was added to water, and the mixture was vigorously shaken at 25°C for 6 hours and filtered through a membrane filter of 0.22 µm.
The griseofulvin in the above filtrate was determined by spectrophotometry (Shimadzu Corp., UV-240 spectrophotometer).

[6] = Water-solubility of indomethacin alone or combined with β-CyD-G2-COONa or β-CyD (Example 11)
Text: The results are in Table 11. Table 11

[7] = Water-solubility of phenytoin alone or combined with β-CyD-G2-COONa or β-CyD (Example 9)
Method: as §4

[8] = Water-solubility of testosterone alone or combined with β-CyD-G2-COONa or β-CyD (Example 8)
Method: as §4

[9] = Water-solubility of testosterone alone or combined with α-CyD-G2-COONa or α-CyD (Example 14); format: physicochemical; details: testosterone about 4 mg, α-CyD-G2-COONa or α-CyD 75 mg in water 5 ml, shaken at 25°C for 8 hours; ultraviolet spectrophotometer; read-out: solubilities of testosterone
Method: The same operations were carried out using α-cyclodextrin (α-CyD) instead of α-CyD-G2-COONa or using testosterone alone. The concentration of testosterone dissolved in the resulting filtrate was determined with an ultraviolet spectrophotometer (Shimadzu Corp., UV-240).

[10] = Water-solubility of testosterone alone or combined with β-CyD-CH2CH(OH)-COONa or β-CyD (Example 15); format: physicochemical; details: testosterone about 4 mg, β-CyD-CH2CH(OH)-COONa or β-CyD 75 mg in water 5 ml, shaken at 25°C for 8 hours; ultraviolet spectrophotometer; read-out: solubilities of testosterone
Method: The same operations were carried out using β-CyD instead of β-CyD-CH2CH(OH)-COONa or using testosterone alone. The concentration of testosterone dissolved in the resulting filtrate was determined with an ultraviolet spectrophotometer (Shimadzu Corp., UV-240).

[11] = water, 8 h
Text: The results are in Table 10. Table 10

CC(=O)c1ccc(S(=O)(=O)NC(=O)NC2CCCCC2)cc1 [Acetohexamide alone, acetohexamide]
solubility [1]: 28.1 µg/mL

C[C@@H](n1ncn(-c2ccc(OCC(F)(F)C(F)F)cc2)c1=O)[C@](O)(Cn1cncn1)c1ccc(F)cc1F [Antifungal agent alone, 2-[(1R,2R)-2-(2,4-difluorophenyl)-2-hydroxy-1-methyl-3-(1H-1,2,4-triazol-1-yl)propyl]-4-[4-(2,2,3,3-tetrafluoropropoxy)phenyl]-3-(2H,4H)-1,2,4-triazolone]
solubility [2]: 5 µg/mL

CCOC(=O)C(C)(C)Oc1ccc(Cl)cc1 [Clofibrate agent alone, clofibrate]
solubility [3]: 82 µg/mL

O=C(O)c1ccccc1Nc1cccc(C(F)(F)F)c1 [Flufenamic acid alone, flufenamic acid]
solubilities of flufenamic acid [4]: 0.074 mg/mL

COC1=CC(=O)C[C@@H](C)[C@]12Oc1c(Cl)c(OC)cc(OC)c1C2=O [Griseofulvin alone, griseofulvin]
solubility [5]: 23 µg/mL

COc1ccc2c(c1)c(CC(=O)O)c(C)n2C(=O)c1ccc(Cl)cc1 [Indomethacin alone, indomethacin]
solubility at 8 h [6]: 23 µg/mL

O=C1NC(=O)C(c2ccccc2)(c2ccccc2)N1 [Phenytoin alone, phenytoin]
solubility at 8 h [7]: 27 µg/mL

C[C@]12CC[C@H]3[C@@H](CCC4=CC(=O)CC[C@@]43C)[C@@H]1CC[C@@H]2O [Testosterone alone, testosterone]
solubility at 8 h [8]: 29 µg/mL
solubility at 8 h [9]: 29 µg/mL
solubility at 8 h [10]: 29 µg/mL

vitamin K2 [Vitamin K2 alone]
solubilities of vitamin K2 [11]: 0.0005 µg/mL
